# Measurements: patent US10828337B2, “Materials and methods for controlling vasculogenesis from endothelial colony forming cells” (Indiana University Research and Technology Corporation, priority 2011, dated 2020)
# Test system: ECFC vacuole formation
# Assay: Perturbation of ECFC vacuole formation by inhibitors
# Assay type: cell-based, Human
# Details: for way in which total vacuole area was decreased: Casin 2.5 μM (Cdc42), NSC23766 25 μM (Rac1), 3.0 mg/ml oligomer rich matrices (FIGS. 11 G, H); for effect on ECFC vacuole formation: MAB17781 1 μg/ml, Casin 2.5 μM, NSC23766 25 μM, TIMP-3 5 μg/ml
# Protocol: For analysis of in vitro vacuole formation, cultures were fixed with 4% paraformaldehyde for 20 minutes at 48 hours. Scaffolds were stained with 0.1% toluidine blue 0 in 30% methanol for 20 minutes and then washed with PBS.
# A Leica DM IRE2 microscope (Leica Microsystems, Bannockburn, Ill.) with attached Retiga 4000R digital camera (QImaging, Surrey, BC, Canada) was used to image the entire area of each matrix using a 10× objective and the middle 9 fields of view were used for analysis. Lumens were quantified using a standard image analysis system Metamorph (Molecular Devices, Sunnyvale, Calif.). […] Lumens were defined as areas completely surround by a toluidine blue labeled endothelial cell membrane.
# Chemical inhibitors TIMP-3 (5 μg/ml, R&D Systems, Minneapolis, Minn.), Casin (2.5 μM), NSC23766 (25 μM), or MAB17781 (1 μg/ml, R&D Systems, Minneapolis, Minn.) were added into the media during ECFC culture in 3.0 mg/ml matrices polymerized with the oligomer rich fraction. Treatments were conducted in duplicate and at least three independent experiments were conducted.
# To first determine if this signaling axis was involved in ECFC vacuole formation chemical inhibitors to β1 integrin, Cdc42, Rac1, and MT1-MMP were added to cultures to test if they would alter cell behavior.
# [1] = 3.0 mg/ml oligomer rich matrices
Molecule,way in which total vacuole area was decreased,effect on ECFC vacuole formation [1],"vacuole density (inhibitor in media (MAB17781 1 μg/ml, TIMP-3 5 μg/ml), 3.0 mg/ml oligomer rich matrices, control 11.24±0.65)","vacuole area (inhibitor in media (MAB17781 1 μg/ml, TIMP-3 5 μg/ml), 3.0 mg/ml oligomer rich matrices, control 536.09±138.24)","total vacuole area (inhibitor in media (MAB17781 1 μg/ml, TIMP-3 5 μg/ml), 3.0 mg/ml oligomer rich matrices, control 19103.60±5447.67)"
CCN(CC)CCCC(C)Nc1nc(C)cc(Nc2ccc3nc(C)cc(N)c3c2)n1 (centres unmarked) [NSC23766],decreased total vacuole area by decreasing average vacuole area,inhibited ECFC vacuole formation,,,
OCCNC1CCCc2c1[nH]c1ccc(-c3ccccc3)cc21 (centres unmarked) [Casin],decreased total vacuole area by decreasing vacuole density,inhibited ECFC vacuole formation,,,
"TIMP-3: inhibitor (R&D Systems) added to the cultures to inhibit MT1-MMP activity (protein, UniProt P35625 24-211, looked up) Metalloproteinase inhibitor 3: CTCSPSHPQDAFCNSDIVIRAKVVGKKLVKEGPFGTLVYTIKQMKMYRGFTKMPHVQYIHTEASESLCGLKLEVNKYQYLLTGRVYDGKMYTGLCNFVERWDQLTLSQRKGLNYRYHLGCNCKIKSCYYLPCFVTSKNECLWTDMLSNFGYPGYQSKHYACIRQKGGYCSWYRGWAPPDKSIINATDP",,inhibited ECFC vacuole formation,3.31±1.38 vacuoles/mm^2,146.04±45.86 μm^2,2288.76±1685.92 μm^2
